Target: T1, rat CB1 receptor (Rattus norvegicus, UniProt P20272)
T1 construct: contains an open reading frame of 1419 base pairs which corresponds to a protein of 473 amino acids; expressed in transfected cells; host or cells: CHOluc9 cells (CHO luciferase reporter line), stably transfected with pRc/CMV-based plasmid CMV-RH
Assay: CB1 luciferase reporter gene test
Format: cell-based
Conditions: CHOluc9 cells stably transfected with rat CB1, forskolin-stimulated luciferase; read-out: IC50 (nmol/l), activity in the rat CB1 receptor luciferase receptor gene test
Text: CB1—Luciferase Reporter Gene Test
1. Cloning of the Rat Cannabinoid Receptor CB1
Total RNA from rat brain (the tissue was taken from freshly killed animals and shock-frozen in liquid nitrogen) was isolated by acidic guanidinium thiocyanate/phenol/chloroform extraction (J. Biol. Chem. 1979, 18, 5294) and converted into cDNA by means of reverse transcriptase and random primers (in each case from Invitrogen). […] This PCR product was subcloned into the TA cloning vector (Invitrogen) and the nucleotide sequence of the insert was determined by the dideoxynucleotide chain termination reaction using T7DNA polymerase (Sequenase, USA/Amersham). The insert has a length of 1477 base pairs and contains an open reading frame of 1419 base pairs which corresponds to a protein of 473 amino acids. The number of base pairs, the position of the open reading frame and the number of amino acids agree with the published sequence. […]

T1 sequence (P20272 whole entry): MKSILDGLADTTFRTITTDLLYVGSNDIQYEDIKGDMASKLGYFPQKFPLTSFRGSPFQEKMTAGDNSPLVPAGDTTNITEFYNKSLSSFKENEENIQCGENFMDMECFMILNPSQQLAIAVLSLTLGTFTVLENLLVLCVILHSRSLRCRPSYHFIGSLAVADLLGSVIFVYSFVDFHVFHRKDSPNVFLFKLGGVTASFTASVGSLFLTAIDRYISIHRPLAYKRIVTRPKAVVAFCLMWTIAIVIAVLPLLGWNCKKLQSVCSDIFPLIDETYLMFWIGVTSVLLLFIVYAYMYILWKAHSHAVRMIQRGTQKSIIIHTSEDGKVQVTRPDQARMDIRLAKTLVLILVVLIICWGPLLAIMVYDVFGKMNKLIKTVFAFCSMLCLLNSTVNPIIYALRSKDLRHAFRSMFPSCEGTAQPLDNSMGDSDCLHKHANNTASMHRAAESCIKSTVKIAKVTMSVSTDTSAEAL

O=S(=O)(CCCC(F)(F)F)Oc1cccc(Oc2cccc3cc(CO)oc23)c1 [Example 1, 2-Hydroxymethyl-7-[3-(4,4,4-trifluorobutyl-1-sulphonyloxy)phenyl-1-oxy]-benzofuran]
IC50: 0.55 nmol/L
